{"source": "patent US20200338229A1", "about": "“ANTIMICROBIAL ADHESIVE DRESSINGS” (priority 2015, published 2020)", "key": {"[1]": {"conditions": "in the silicone adhesive of this invention"}, "[2]": {"conditions": "cited from earlier work"}, "[3]": {"conditions": "in the presence of light; cited from earlier work"}}, "note": "Where two headings read alike, the source gives them in different places."}
{"substance": "Polyhexamethylene biguanide [PHMB]", "values": [{"measurement": "stability to autoclaving", "setting": "[1]; autoclaving at 121° C.", "value": "stable"}, {"measurement": "stability to curing temperature", "setting": "[1]; curing temperature of 140° C.", "value": "stable"}, {"measurement": "solubility", "setting": "[2]; in oils and hydrocarbons and silicone elastomers", "value": "not soluble"}, {"measurement": "solubility", "setting": "[2]; in water, alcohols and glycols", "value": "soluble"}, {"measurement": "pH range of stability", "setting": "[3]", "value": "4-10 pH"}, {"measurement": "temperature up to which stable", "setting": "[3]", "value": "up to 80 °C"}]}
